The source made the active and inactive calls. No rule for the calls is given here.
Test system: CCRIS mutagenicity, Ames/micronucleus/aberration tests
Experiment: CCRIS mutagenicity studies

With N#C/C(N)=C(/N)C#N the mutagenic call (Test System: AMES SALMONELLA TYPHIMURIUM, Strain/Indicator: TA97, Metabolic Activation: HAMSTER, LIVER, S-9, AROCLOR 1254 (10%), Method: PREINCUBATION) was “inactive; negative”, the mutagenic call (Test System: AMES SALMONELLA TYPHIMURIUM, Strain/Indicator: TA97, Metabolic Activation: HAMSTER, LIVER, S-9, AROCLOR 1254 (30%), Method: PREINCUBATION) was “inactive; negative” and the mutagenic call (Test System: AMES SALMONELLA TYPHIMURIUM, Strain/Indicator: TA97, Metabolic Activation: NONE, Method: PREINCUBATION) was “inactive; negative”. The mutagenic call (Test System: AMES SALMONELLA TYPHIMURIUM, Strain/Indicator: TA97, Metabolic Activation: RAT, LIVER, S-9, AROCLOR 1254 (10%), Method: PREINCUBATION) was “inactive; negative”, the mutagenic call (Test System: AMES SALMONELLA TYPHIMURIUM, Strain/Indicator: TA97, Metabolic Activation: RAT, LIVER, S-9, AROCLOR 1254 (30%), Method: PREINCUBATION) was “inactive; negative” and the mutagenic call (Test System: AMES SALMONELLA TYPHIMURIUM, Strain/Indicator: TA98, Metabolic Activation: HAMSTER, LIVER, S-9, AROCLOR 1254 (10%), Method: PREINCUBATION) was “inactive; negative”. For the same compound, the mutagenic call (Test System: AMES SALMONELLA TYPHIMURIUM, Strain/Indicator: TA98, Metabolic Activation: HAMSTER, LIVER, S-9, AROCLOR 1254 (30%), Method: PREINCUBATION) was “inactive; negative”, the mutagenic call (Test System: AMES SALMONELLA TYPHIMURIUM, Strain/Indicator: TA98, Metabolic Activation: NONE, Method: PREINCUBATION) was “inactive; negative” and the mutagenic call (Test System: AMES SALMONELLA TYPHIMURIUM, Strain/Indicator: TA98, Metabolic Activation: RAT, LIVER, S-9, AROCLOR 1254 (10%), Method: PREINCUBATION) was “inactive; negative”. The mutagenic call (Test System: AMES SALMONELLA TYPHIMURIUM, Strain/Indicator: TA98, Metabolic Activation: RAT, LIVER, S-9, AROCLOR 1254 (30%), Method: PREINCUBATION) was “inactive; negative”, the mutagenic call (Test System: AMES SALMONELLA TYPHIMURIUM, Strain/Indicator: TA100, Metabolic Activation: HAMSTER, LIVER, S-9, AROCLOR 1254 (10%), Method: PREINCUBATION) was “inactive; negative” and the mutagenic call (Test System: AMES SALMONELLA TYPHIMURIUM, Strain/Indicator: TA100, Metabolic Activation: HAMSTER, LIVER, S-9, AROCLOR 1254 (30%), Method: PREINCUBATION) was “inactive; negative”. The mutagenic call (Test System: AMES SALMONELLA TYPHIMURIUM, Strain/Indicator: TA100, Metabolic Activation: NONE, Method: PREINCUBATION) was “inactive; negative”, the mutagenic call (Test System: AMES SALMONELLA TYPHIMURIUM, Strain/Indicator: TA100, Metabolic Activation: RAT, LIVER, S-9, AROCLOR 1254 (10%), Method: PREINCUBATION) was “inactive; negative” and the mutagenic call (Test System: AMES SALMONELLA TYPHIMURIUM, Strain/Indicator: TA100, Metabolic Activation: RAT, LIVER, S-9, AROCLOR 1254 (30%), Method: PREINCUBATION) was “inactive; negative”. For the same compound, the mutagenic call (Test System: AMES SALMONELLA TYPHIMURIUM, Strain/Indicator: TA1535, Metabolic Activation: HAMSTER, LIVER, S-9, AROCLOR 1254 (10%), Method: PREINCUBATION) was “inactive; negative”, the mutagenic call (Test System: AMES SALMONELLA TYPHIMURIUM, Strain/Indicator: TA1535, Metabolic Activation: HAMSTER, LIVER, S-9, AROCLOR 1254 (30%), Method: PREINCUBATION) was “inactive; negative” and the mutagenic call (Test System: AMES SALMONELLA TYPHIMURIUM, Strain/Indicator: TA1535, Metabolic Activation: NONE, Method: PREINCUBATION) was “inactive; negative”. The mutagenic call (Test System: AMES SALMONELLA TYPHIMURIUM, Strain/Indicator: TA1535, Metabolic Activation: RAT, LIVER, S-9, AROCLOR 1254 (10%), Method: PREINCUBATION) was “inactive; negative”, the mutagenic call (Test System: AMES SALMONELLA TYPHIMURIUM, Strain/Indicator: TA1535, Metabolic Activation: RAT, LIVER, S-9, AROCLOR 1254 (30%), Method: PREINCUBATION) was “inactive; negative” and the mutagenic call (Test System: MOUSE LYMPHOMA, Strain/Indicator: L5178Y (TK+/TK-), Metabolic Activation: NONE, Method: SUSPENSION/PLATE) was “active; positive. reevaluation of results: positive”. The mutagenic call (Test System: MOUSE LYMPHOMA, Strain/Indicator: L5178Y (TK+/TK-), Metabolic Activation: RAT, LIVER, S-9, AROCLOR 1254, Method: SUSPENSION/PLATE) was “active; positive. reevaluation of results: positive”.

O=CNc1nc(-c2ccc([N+](=O)[O-])o2)cs1 was tested, and the mutagenic call (Test System: AMES SALMONELLA TYPHIMURIUM, Strain/Indicator: TA100, Metabolic Activation: NONE, Method: STANDARD PLATE) was “active; positive”, the mutagenic call (Test System: AMES SALMONELLA TYPHIMURIUM, Strain/Indicator: TA100, Metabolic Activation: RAT, LIVER, S-9, KC500 OR PHENOBARBITAL, Method: LIQUID SUSPENSION) was “active; positive” and the mutagenic call (Test System: E. COLI, Strain/Indicator: WP2, Metabolic Activation: NONE, Method: SPOT) was “active; positive”. The mutagenic call (Test System: E. COLI, Strain/Indicator: WP2, Metabolic Activation: NONE, Method: STANDARD PLATE) was “active; positive”, the mutagenic call (Test System: E. COLI, Strain/Indicator: WP2 UVRA, Metabolic Activation: HAMSTER, LIVER, S-9, AROCLOR 1254, Method: STANDARD PLATE) was “active; positive” and the mutagenic call (Test System: E. COLI, Strain/Indicator: WP2 UVRA, Metabolic Activation: HAMSTER, LIVER, S-9, Method: STANDARD PLATE) was “active; positive”. The mutagenic call (Test System: E. COLI, Strain/Indicator: WP2 UVRA, Metabolic Activation: MOUSE, LIVER, S-9, AROCLOR 1254, Method: STANDARD PLATE) was “active; positive”, the mutagenic call (Test System: E. COLI, Strain/Indicator: WP2 UVRA, Metabolic Activation: MOUSE, LIVER, S-9, Method: STANDARD PLATE) was “active; positive” and the mutagenic call (Test System: E. COLI, Strain/Indicator: WP2 UVRA, Metabolic Activation: NONE, Method: SPOT) was “active; positive”. The mutagenic call (Test System: E. COLI, Strain/Indicator: WP2 UVRA, Metabolic Activation: NONE, Method: STANDARD PLATE) was “active; positive”, the mutagenic call (Test System: E. COLI, Strain/Indicator: WP2 UVRA, Metabolic Activation: RAT, LIVER, S-9, AROCLOR 1254, Method: STANDARD PLATE) was “active; positive” and the mutagenic call (Test System: E. COLI, Strain/Indicator: WP2 UVRA, Metabolic Activation: RAT, LIVER, S-9, Method: STANDARD PLATE) was “active; positive”.
